Test [1] has as its system oligodendrocytes. As to the kind of experiment: Test 3: protective effect of riluzole on oligodendrocyte death induced by kainate. It is filed as cell-based, Wistar rats. Conditions: Kainate 1000 alone (no riluzole), 48 hours.
Procedure: Oligodendrocytes were obtained from primary glial cultures of spinal cords according to the slightly modified method described by Saneto et al. (Neurochemistry, a Practical Approach, IRL Press, oxford-Washington, D.C., p 27-63 (1987)). Spinal cords from 1-day old Wistar rats were dissected under sterile conditions and separated from the meninges. Five to ten spinal cords were transferred into PBS (phosphate-buffered saline: NaCl 137 mM, KCl 2.68 mM, Na2HPO4 6.45 mM, KH2PO4 1.47 mM) to which 0.25% of trypsin was added. The enzymatic treatment was stopped by addition of Dubelco's modified Eagle's medium (DMEM) to which 10% of fetal bovine serum was added (FBS). Another dissolution step was carried out by means of a 1 ml pipette, and the cell suspension was filtered. The cells were collected by centrifugation and plated at a density of 1.5−2×10^6 cells/25 cm^2 of culture medium in Dubelco's modified Eagle's medium (DMEM) to which 10% of fetal bovine serum was added. After 3 days in vitro, the cultures were fed daily. […]
(§1) After 48 hours, measured from the start of treatment, the living oligodendrocytes were counted.
The number of Gal-C (+) oligo-dendrocytes were divided for 2 separate counts of the labeled cells in at least 12 fields of 0.63 mm^2 under a 400X microscope. The values were expressed as the number of cells per cm^2 or as the percentage of the control. […]
Test [2] has as its system oligodendrocytes. As to the kind of experiment: Kainate-induced death in cultures enriched with oligodendrocytes, counting of living Gal-C (+) cells. It is filed as cell-based, Wistar rats. Conditions: 48 hours.
Procedure: Oligodendrocytes were obtained from primary glial cultures of spinal cords according to the slightly modified method described by Saneto et al. (Neurochemistry, a Practical Approach, IRL Press, oxford-Washington, D.C., p 27-63 (1987)). Spinal cords from 1-day old Wistar rats were dissected under sterile conditions and separated from the meninges. Five to ten spinal cords were transferred into PBS (phosphate-buffered saline: NaCl 137 mM, KCl 2.68 mM, Na2HPO4 6.45 mM, KH2PO4 1.47 mM) to which 0.25% of trypsin was added. The enzymatic treatment was stopped by addition of Dubelco's modified Eagle's medium (DMEM) to which 10% of fetal bovine serum was added (FBS). Another dissolution step was carried out by means of a 1 ml pipette, and the cell suspension was filtered. The cells were collected by centrifugation and plated at a density of 1.5−2×10^6 cells/25 cm^2 of culture medium in Dubelco's modified Eagle's medium (DMEM) to which 10% of fetal bovine serum was added. After 3 days in vitro, the cultures were fed daily. When a visible monolayer was obtained, the cultures were stirred for 2 hours at 37° C. at 250 rpm, the culture medium was removed, and the flasks were again stirred for 22 hours. The cell-containing medium was incubated at 37° C. in petri dishes for 1 hour in order for the microglia to become attached to the plastic. The oligodendrocytes were collected by centrifugation, plated at a density of 1.6×10^6/cm^2 and maintained in DMEM containing 10% FBS for 1 or 2 days. The medium was then replaced with L15 medium to which sodium bicarbonate (22 mM), conalbumin (0.1 mg/ml), putrescine (0.1 mM), insulin (5 μg/ml), sodium selenite (31 nM), glucose (20 mM), progesterone (21 nM), penicillin (100 IU/ml), streptomycin (100 μg/ml), and horse serum (2%) were added. The oligodendrocytes rapidly differentiated within 24 to 48 hours into a mature and immature phenotype.
as §1
The number of Gal-C (+) oligo-dendrocytes were divided for 2 separate counts of the labeled cells in at least 12 fields of 0.63 mm^2 under a 400X microscope. The values were expressed as the number of cells per cm^2 or as the percentage of the control.
The statistical analyses were carried out using the Student's test (t-test).
The cultures of oligodendrocytes were exposed to concentrations of 0.1 to 1 mM kainate for 48 hours.

As to `C=C(C)[C@H]1CN[C@H](C(=O)O)[C@H]1CC(=O)O` [Kainate], the “Number of oligodendrocytes % relative to the control ± standard deviation” value in test [1] is listed as 22.9 ± 7.1 % relative to the control; in test [2] (kainate 0.01 mM), 108.2 ± 25.2 % relative to the control; in test [2] (kainate 0.1 mM), 76.3 ± 27.9 % relative to the control; in test [2] (kainate 0.5 mM), 25.3 ± 9.3 % relative to the control; in test [2] (kainate 1 mM), 22.9 ± 7.1 % relative to the control. Besides, the “Induction of death of the oligodendrocytes through apoptosis” value in test [2] (kainate at doses of from about 0.1 mM to about 1 mM) is listed as “strongly induced death of the oligodendrocytes through apoptosis”.

The record behind these values is patent publication US20020037902A1 (priority 2000, published 2002).
